Measured values reported in patent US9957264B2 (Merck Sharp & Dohme Corp., priority 2013, dated 2018).
pIC50: −log10 of the molar value.

How the values were obtained:
[1] = target: JAK2 (recombinant purified GST-tagged catalytic domain) (Homo sapiens (Human), UniProt O60674); assay: Jak Biochemical HTRF Assay (JAK2); conditions: [ATP] 8.5 μM
[2] = target: JAK1 (recombinant purified GST-tagged catalytic domain) (Homo sapiens (Human), UniProt P23458); assay: Jak Biochemical HTRF Assay (JAK1); conditions: [ATP] 31.8 μM
JAK1 (recombinant purified GST-tagged catalytic domain), sequence (P23458 875-1153): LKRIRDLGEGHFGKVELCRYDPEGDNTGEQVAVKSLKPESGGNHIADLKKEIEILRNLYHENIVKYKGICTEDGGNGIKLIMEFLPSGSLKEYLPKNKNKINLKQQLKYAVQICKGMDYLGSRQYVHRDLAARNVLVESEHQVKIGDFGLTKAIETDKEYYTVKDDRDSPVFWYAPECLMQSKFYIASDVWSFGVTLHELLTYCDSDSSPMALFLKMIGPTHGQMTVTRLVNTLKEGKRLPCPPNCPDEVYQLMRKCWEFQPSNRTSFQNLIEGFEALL
How it was run: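 HTRF format, biotinylated peptide substrate; ATP-initiated reaction 120 min RT; EDTA quench + streptavidin-Dylight 650/Eu-anti-pY20 detection, 60 min RT; signal = 665/615 ratio ×10,000; normalized % inhibition, 4-parameter fit → IC50.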

JAK2 (recombinant purified GST-tagged catalytic domain), sequence (O60674 849-1124): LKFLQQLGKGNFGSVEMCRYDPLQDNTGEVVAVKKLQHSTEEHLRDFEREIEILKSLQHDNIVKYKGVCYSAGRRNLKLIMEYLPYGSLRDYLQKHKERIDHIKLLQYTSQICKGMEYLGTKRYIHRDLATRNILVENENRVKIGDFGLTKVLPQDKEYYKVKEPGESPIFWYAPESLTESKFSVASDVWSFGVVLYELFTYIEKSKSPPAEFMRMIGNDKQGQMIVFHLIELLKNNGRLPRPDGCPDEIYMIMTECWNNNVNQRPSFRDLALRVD

## Cc1cc(Nc2nn([C@@]3(CC#N)CCOC[C@H]3F)c3cc[nH]c(=O)c23)ccc1C(=O)N1CCSCC1 (single isomer, unassigned) [Example 5-261, 2-((3S,4S or 3R,4R)-3-fluoro-4-(3-(3-methyl-4-(thiomorpholine-4-carbonyl)phenylamino)-4-oxo-4,5-dihydropyrazolo[4,3-c]pyridin-1-yl)-tetrahydro-2H-pyran-4-yl)acetonitrile]
[1]
  pIC50: 8.56
[2]
  pIC50: 8.65

## Cc1cc(Nc2nn([C@]3(CC#N)CCOC[C@@H]3F)c3cc[nH]c(=O)c23)ccc1C(=O)N1CCSCC1 (single isomer, unassigned) [Example 5-262, 2-((3R,4R or 3S,4S)-3-fluoro-4-(3-((3-methyl-4-(thiomorpholine-4-carbonyl)phenyl)amino)-4-oxo-4,5-dihydro-1H-pyrazolo[4,3-c]pyridin-1-yl)tetrahydro-2H-pyran-4-yl)acetonitrile]
[1]
  pIC50: 10.10
[2]
  pIC50: 10.05

## N#CC[C@]1(n2nc(Nc3ccc([C@]4(C(F)(F)F)CCCCN4)cc3)c3c(=O)[nH]ccc32)CCOC[C@H]1F (single isomer, unassigned) [Example 5-263, 2-((3S,4S or 3R,4R)-3-fluoro-4-(4-oxo-3-((4-((S or R)-2-(trifluoromethyl)piperidin-2-yl)phenyl)amino)-4,5-dihydro-1H-pyrazolo[4,3-c]pyridin-1-yl)tetrahydro-2H-pyran-4-yl)acetonitrile]
[1]
  pIC50: 9.11
[2]
  pIC50: 9.32

## N#CC[C@]1(n2nc(Nc3ccc([C@@]4(C(F)(F)F)CCCCN4)cc3)c3c(=O)[nH]ccc32)CCOC[C@H]1F (single isomer, unassigned) [Example 5-264, 2-((3S,4S or 3R,4R)-3-fluoro-4-(4-oxo-3-((4-((R or S)-2-(trifluoromethyl)piperidin-2-yl)phenyl)amino)-4,5-dihydro-1H-pyrazolo[4,3-c]pyridin-1-yl)tetrahydro-2H-pyran-4-yl)acetonitrile]
[1]
  pIC50: 9.10
[2]
  pIC50: 9.29

## N#CC[C@@]1(n2nc(Nc3ccc([C@]4(C(F)(F)F)CCCCN4)cc3)c3c(=O)[nH]ccc32)CCOC[C@@H]1F (single isomer, unassigned) [Example 5-265, 2-((3R,4R or 3S,4S)-3-fluoro-4-(4-oxo-3-((4-((S or R)-2-(trifluoromethyl)piperidin-2-yl)phenyl)amino)-4,5-dihydro-1H-pyrazolo[4,3-c]pyridin-1-yl)tetrahydro-2H-pyran-4-yl)acetonitrile]
[1]
  pIC50: 10.40
[2]
  pIC50: 10.30

## N#CC[C@@]1(n2nc(Nc3ccc([C@@]4(C(F)(F)F)CCCCN4)cc3)c3c(=O)[nH]ccc32)CCOC[C@@H]1F (single isomer, unassigned) [Example 5-266, 2-((3R,4R or 3S,4S)-3-fluoro-4-(4-oxo-3-((4-((R or S)-2-(trifluoromethyl)piperidin-2-yl)phenyl)amino)-4,5-dihydro-1H-pyrazolo[4,3-c]pyridin-1-yl)tetrahydro-2H-pyran-4-yl)acetonitrile]
[1]
  pIC50: 10.40
[2]
  pIC50: 10.30

## CC(C)(C)N[C@H](c1ccc(Nc2nn([C@@]3(CC#N)CCOC[C@H]3F)c3cc[nH]c(=O)c23)cc1)C(F)(F)F (single isomer, unassigned) [Example 5-267, 2-((3S,4S or 3R,4R)-4-(3-((4-((R or S)-1-(tert-butylamino)-2,2,2-trifluoroethyl)phenyl)amino)-4-oxo-4,5-dihydro-1H-pyrazolo[4,3-c]pyridin-1-yl)-3-fluorotetrahydro-2H-pyran-4-yl)acetonitrile]
[1]
  pIC50: 8.40
[2]
  pIC50: 8.62

## CC(C)(C)N[C@@H](c1ccc(Nc2nn([C@@]3(CC#N)CCOC[C@H]3F)c3cc[nH]c(=O)c23)cc1)C(F)(F)F (single isomer, unassigned) [Example 5-268, 2-((3S,4S or 3R,4R)-4-(3-((4-((S or R)-1-(tert-butylamino)-2,2,2-trifluoroethyl)phenyl)amino)-4-oxo-4,5-dihydro-1H-pyrazolo[4,3-c]pyridin-1-yl)-3-fluorotetrahydro-2H-pyran-4-yl)acetonitrile]
[1]
  pIC50: 8.32
[2]
  pIC50: 8.58

## CC(C)(C)N[C@H](c1ccc(Nc2nn([C@]3(CC#N)CCOC[C@@H]3F)c3cc[nH]c(=O)c23)cc1)C(F)(F)F (single isomer, unassigned) [Example 5-269, 2-((3R,4R or 3S,4S)-4-(3-((4-((R or S)-1-(tert-butylamino)-2,2,2-trifluoroethyl)phenyl)amino)-4-oxo-4,5-dihydro-1H-pyrazolo[4,3-c]pyridin-1-yl)-3-fluorotetrahydro-2H-pyran-4-yl)acetonitrile]
[1]
  pIC50: 10.05
[2]
  pIC50: 9.96

## CC(C)(C)N[C@@H](c1ccc(Nc2nn([C@]3(CC#N)CCOC[C@@H]3F)c3cc[nH]c(=O)c23)cc1)C(F)(F)F (single isomer, unassigned) [Example 5-270, 2-((3R,4R or 3S,4S)-4-(3-((4-((S or R)-1-(tert-butylamino)-2,2,2-trifluoroethyl)phenyl)amino)-4-oxo-4,5-dihydro-1H-pyrazolo[4,3-c]pyridin-1-yl)-3-fluorotetrahydro-2H-pyran-4-yl)acetonitrile]
[1]
  pIC50: 9.89
[2]
  pIC50: 9.92

## N#CC[C@@]1(n2nc(Nc3ccc4c(c3)CN(C3CCN(CC(F)(F)F)CC3)S4(=O)=O)c3c(=O)[nH]ccc32)CCOC[C@@H]1F (single isomer, unassigned) [Example 5-277, 2-((3R,4R or 3S,4S)-4-(3-((1,1-dioxido-2-(1-(2,2,2-trifluoroethyl)piperidin-4-yl)-2,3-dihydrobenzo[d]isothiazol-5-yl)amino)-4-oxo-4,5-dihydro-1H-pyrazolo[4,3-c]pyridin-1-yl)-3-fluorotetrahydro-2H-pyran-4-yl)acetonitrile]
[1]
  pIC50: 10.30
[2]
  pIC50: 10.30

## N#CC[C@]1(n2nc(Nc3ccc4c(c3)CN(C3CCN(CC(F)(F)F)CC3)S4(=O)=O)c3c(=O)[nH]ccc32)CCOC[C@H]1F (single isomer, unassigned) [Example 5-278, 2-((3S,4S or 3R,4R)-4-(3-((1,1-dioxido-2-(1-(2,2,2-trifluoroethyl)piperidin-4-yl)-2,3-dihydrobenzo[d]isothiazol-5-yl)amino)-4-oxo-4,5-dihydro-1H-pyrazolo[4,3-c]pyridin-1-yl)-3-fluorotetrahydro-2H-pyran-4-yl)acetonitrile]
[1]
  pIC50: 8.58
[2]
  pIC50: 9.70

## CC(C)(C)OC(=O)N1CCC(CC#N)(n2nc(Nc3ccc(C4(C(F)(F)F)CCN(Cc5ccccc5)C4)cc3)c3c(=O)[nH]ccc32)CC1 (single isomer, unassigned) [Example 5-280, (S or R) tert-butyl 4-(3-((4-(1-benzyl-3-(trifluoromethyl)pyrrolidin-3-yl)phenyl)amino)-4-oxo-4,5-dihydro-1H-pyrazolo[4,3-c]pyridin-1-yl)-4-(cyanomethyl)piperidine-1-carboxylate]
[1]
  pIC50: 8.02
[2]
  pIC50: 8.13

## CC(C)(C)OC(=O)N1CCC(CC#N)(n2nc(Nc3ccc(C4(C(F)(F)F)CCN(Cc5ccccc5)C4)cc3)c3c(=O)[nH]ccc32)CC1 (single isomer, unassigned) [Example 5-281, (S or R) tert-butyl 4-(3-((4-(1-benzyl-3-(trifluoromethyl)pyrrolidin-3-yl)phenyl)amino)-4-oxo-4,5-dihydro-1H-pyrazolo[4,3-c]pyridin-1-yl)-4-(cyanomethyl)piperidine-1-carboxylate]
[1]
  pIC50: 8.00
[2]
  pIC50: 8.10

## CC(C)(C)OC(=O)N1CCC(CC#N)(n2nc(Nc3ccc(C4(C(F)(F)F)CCNC4)cc3)c3c(=O)[nH]ccc32)CC1 (single isomer, unassigned) [Example 5-282, (S or R) tert-butyl 4-(cyanomethyl)-4-(4-oxo-3-((4-(3-(trifluoromethyl)pyrrolidin-3-yl)phenyl)amino)-4,5-dihydro-1H-pyrazolo[4,3-c]pyridin-1-yl)piperidine-1-carboxylate]
[1]
  pIC50: 9.31
[2]
  pIC50: 9.48

## CC(C)(C)OC(=O)N1CCC(CC#N)(n2nc(Nc3ccc(C4(C(F)(F)F)CCNC4)cc3)c3c(=O)[nH]ccc32)CC1 (single isomer, unassigned) [Example 5-283, (S or R) tert-butyl 4-(cyanomethyl)-4-(4-oxo-3-((4-(3-(trifluoromethyl)pyrrolidin-3-yl)phenyl)amino)-4,5-dihydro-1H-pyrazolo[4,3-c]pyridin-1-yl)piperidine-1-carboxylate]
[1]
  pIC50: 9.37
[2]
  pIC50: 9.48

## CC(C)(C)OC(=O)[C@@H]1CC[C@@](CC#N)(n2nc(Nc3ccc(C4(C(F)(F)F)CCNC4)cc3)c3c(=O)[nH]ccc32)CO1 (single isomer, unassigned) [Example 5-284, (2S,5S)-tert-butyl 5-(cyanomethyl)-5-(4-oxo-3-((4-((R or S)-3-(trifluoromethyl)pyrrolidin-3-yl)phenyl)amino)-4,5-dihydro-1H-pyrazolo[4,3-c]pyridin-1-yl)tetrahydro-2H-pyran-2-carboxylate]
[1]
  pIC50: 9.62
[2]
  pIC50: 9.82

## CC(C)(C)OC(=O)[C@@H]1CC[C@@](CC#N)(n2nc(Nc3ccc(C4(C(F)(F)F)CCNC4)cc3)c3c(=O)[nH]ccc32)CO1 (single isomer, unassigned) [Example 5-285, (2S,5S)-tert-butyl 5-(cyanomethyl)-5-(4-oxo-3-((4-((R or S)-3-(trifluoromethyl)pyrrolidin-3-yl)phenyl)amino)-4,5-dihydro-1H-pyrazolo[4,3-c]pyridin-1-yl)tetrahydro-2H-pyran-2-carboxylate]
[1]
  pIC50: 9.68
[2]
  pIC50: 9.82

## CC(C)(C)OC(=O)[C@@H]1CC[C@@](CC#N)(n2nc(Nc3ccc(C4(C(F)(F)F)CCCCN4)cc3)c3c(=O)[nH]ccc32)CO1 (single isomer, unassigned) [Example 5-286, (2S,5S)-tert-butyl 5-(cyanomethyl)-5-(4-oxo-3-((4-((S or R)-2-(trifluoromethyl)piperidin-2-yl)phenyl)amino)-4,5-dihydro-1H-pyrazolo[4,3-c]pyridin-1-yl)tetrahydro-2H-pyran-2-carboxylate]
[1]
  pIC50: 9.48
[2]
  pIC50: 9.62
